Values after ≈ are worked out from the molar mass of the structure shown.
Assays:
Penicillium commune = experiment: Antimycotic activity in vitro (series dilution test), Penicillium commune; type: cell-based; settings: nutrient medium, 28° C, 24 to 96 hours, read-out: Minimum inhibitory concentration (MIC), Penicillium commune
[1] = system: Trichophyton mentagrophytes; experiment: Antimycotic activity in vitro (series dilution test), Trichophyton mentagrophytes; type: cell-based; settings: nutrient medium, 28° C, 24 to 96 hours, read-out: Minimum inhibitory concentration (MIC), Trichophyton mentagrophytes
Candida albicans = experiment: Antimycotic activity in vitro (series dilution test), Candida albicans; type: cell-based; settings: nutrient medium, 28° C, 24 to 96 hours, read-out: Minimum inhibitory concentration (MIC), Candida albicans
Aspergillus niger = experiment: Antimycotic activity in vitro (series dilution test), Aspergillus niger; type: cell-based; settings: nutrient medium, 28° C, 24 to 96 hours, read-out: Minimum inhibitory concentration (MIC), Aspergillus niger
[2] = system: Trichophyton mentagrophytes; experiment: Topical application against trichophytosis in guinea pigs; type: in vivo; settings: 1% strength solution applied locally for 11 to 14 days
Description: a. Topical application against trichophytosis in guinea pigs.
A 1% strength solution of the active compounds in a dimethylsulphoxide/glycerol/water mixture (1:3:6) or in polyethylene glycol 400 was applied locally for 11 to 14 days after the trichophytosis (pathogen: Trichophyton mentagrophytes) had been produced experimentally.

Trichophyton quinckeanum = experiment: Oral administration against Quinckeanum trichophytosis in white mice; type: in vivo; settings: 100 mg/kg orally twice daily up to the eighth day of the infection
Method: b. Oral administration against Quinckeanum trichophytosis in white mice By using doses of 100 mg/kg of body weight, administered orally twice daily up to the eighth day of the infection, it was possible to suppress the development of the Quinckeanum infection in mice.

| SMILES | MIC (Penicillium commune) [µg/mL] | MIC [1] [µg/mL] | MIC (Candida albicans) [µg/mL] | MIC (Aspergillus niger) [µg/mL] | Action (topical, trichophytosis in guinea pigs) [2] | Action against Trichophyton quinckeanum (Trichophyton quinckeanum) |
| --- | --- | --- | --- | --- | --- | --- |
| CC(C)(C)C(O)C(Cn1ccnc1)Oc1cccc(Cl)c1 (stereo not shown) [Example 4] | > 64 | > 64 | 64 (≈ 207 µM) |  |  |  |
| CC(C)(C)C(O)C(Cn1ccnc1)Oc1ccc(Cl)cc1Cl (stereo not shown) [Example 5] | > 64 | 4 (≈ 11.7 µM) | 64 (≈ 186 µM) | 64 (≈ 186 µM) |  |  |
| CC(C)(C)C(O)C(Cn1ccnc1)Oc1ccc(Cl)cc1 (stereo not shown) [Example 1, 1-(imidazol-1-yl)-2-(4-chlorophenoxy)-3-hydroxy-4,4-dimethyl-pentane] | > 64 | 32 (≈ 104 µM) | 64 (≈ 207 µM) |  |  |  |
| CC(C)(C)C(O)C(Cn1ccnc1)Oc1ccc(F)cc1 (stereo not shown) [Example 6] | > 64 | 64 (≈ 219 µM) | 64 (≈ 219 µM) |  |  |  |
| CC(C)(C)C(O)(Cc1ccccc1)C(Cn1ccnc1)Oc1ccc(Cl)cc1 (stereo not shown) [Example 2, 1-(imidazol-1-yl)-2-(4-chlorophenoxy)-3-benzyl-3-hydroxy-4,4-dimethyl-pentane] | > 64 | < 1 | 64 (≈ 160 µM) | > 64 |  |  |
| Cc1cc(Cl)ccc1OC(Cn1ccnc1)C(O)C(C)(C)C (stereo not shown) [Example 7] | > 64 | 4 (≈ 12.4 µM) | 64 (≈ 198 µM) | > 64 | xx (healing of the infection inside 4-6 days after infection.) | xx (fewer than 30% of the animals showed symptoms of the infection.) |
| CC(C)(C)C(O)C(Cn1ccnc1)Oc1ccccc1Cl (stereo not shown) [Example 3] | > 64 | 32 (≈ 104 µM) | 64 (≈ 207 µM) |  |  |  |
| CC(C)(C)C(O)C(Cn1ccnc1)Oc1ccccc1 (stereo not shown) [Example 8] | > 64 | 32 (≈ 117 µM) | 64 (≈ 233 µM) |  |  |  |
| CC(C)(C)C(C)(O)C(Cn1ccnc1)Oc1ccc(Cl)cc1 (stereo not shown) [Example 9] | > 64 | 8 (≈ 24.8 µM) | 64 (≈ 198 µM) |  | xx (healing of the infection inside 4-6 days after infection.) | xx (fewer than 30% of the animals showed symptoms of the infection.) |

— US3987180A, “1-Propyl-imidazolyl antimycotic compositions and methods of treating mycoses” (Bayer Aktiengesellschaft, priority 1973, dated 1976)
